# Assay results: ChEMBL document CHEMBL3044672, “N9- and N7-(Chloromethyl Phenymethyl)Chloropurine Derivatives from , '-Dichloroxylenes: Synthesis and Anticancer Activity” (2005)
# Tests used:
# Type in all cases: functional
# ACHN = assay: Cytotoxicity against Homo sapiens (human) ACHN cells after 48 hr by sulforhodamine B assay; details: for CC50: read-out: LC50 (the source's name)
# 786-0 = assay: Cytotoxicity against Homo sapiens (human) 786-0 cells after 48 hr by sulforhodamine B assay; details: 786-0, 48 h
# SK-OV-3 = assay: Cytotoxicity against Homo sapiens (human) SKOV3 cells after 48 hr by sulforhodamine B assay; details: SK-OV-3, 48 h
# OVCAR-5 = assay: Cytotoxicity against Homo sapiens (human) OVCAR5 cells after 48 hr by sulforhodamine B assay; details: OVCAR-5, 48 h; for CC50: read-out: LC50 (the source's name)
# IGROV-1 = assay: Cytotoxicity against Homo sapiens (human) IGROV1 cells after 48 hr by sulforhodamine B assay; details: IGROV-1, 48 h
# UACC-62 = assay: Cytotoxicity against Homo sapiens (human) UACC62 cells after 48 hr by sulforhodamine B assay; details: UACC-62, 48 h
# UACC-257 = assay: Cytotoxicity against Homo sapiens (human) UACC257 cells after 48 hr by sulforhodamine B assay; details: UACC-257, 48 h
# SK-MEL-5 = assay: Cytotoxicity against Homo sapiens (human) SK-MEL-5 cells after 48 hr by sulforhodamine B assay; details: SK-MEL-5, 48 h
# SK-MEL-2 = assay: Cytotoxicity against Homo sapiens (human) SK-MEL-2 cells after 48 hr by sulforhodamine B assay; details: SK-MEL-2, 48 h
# LOX IMVI = assay: Cytotoxicity against Homo sapiens (human) LOXIMVI cells after 48 hr by sulforhodamine B assay
# M14 = assay: Cytotoxicity against Homo sapiens (human) M14 cells after 48 hr by sulforhodamine B assay; details: M14, 48 h
# SNB-19 = assay: Cytotoxicity against Homo sapiens (human) SNB19 cells after 48 hr by sulforhodamine B assay; details: SNB-19, 48 h
# T47D = assay: Cytotoxicity against Homo sapiens (human) T47D cells after 48 hr by sulforhodamine B assay
# Hs-578T = assay: Cytotoxicity against Homo sapiens (human) Hs 578T cells after 48 hr by sulforhodamine B assay
# [1] = Cytotoxicity against Homo sapiens (human) NCI-ADR-RES cells after 48 hr by sulforhodamine B assay
# MDA-MB-231 = assay: Cytotoxicity against Homo sapiens (human) MDA-MB-231 cells after 48 hr by sulforhodamine B assay; details: MDA-MB-231, 48 h
# DU-145 = assay: Cytotoxicity against Homo sapiens (human) DU145 cells after 48 hr by sulforhodamine B assay; details: DU-145, 48 h
# TK-10 = assay: Cytotoxicity against Homo sapiens (human) TK10 cells after 48 hr by sulforhodamine B assay; details: TK-10, 48 h; for CC50: read-out: LC50 (the source's name)
# RXF 393 = assay: Cytotoxicity against Homo sapiens (human) RXF393 cells after 48 hr by sulforhodamine B assay; details: RXF 393, 48 h; for CC50: read-out: LC50 (the source's name)
# CAKI-1 = assay: Cytotoxicity against Homo sapiens (human) Caki1 cells after 48 hr by sulforhodamine B assay; details: CAKI-1, 48 h; for CC50: read-out: LC50 (the source's name)
# SF-295 = assay: Cytotoxicity against Homo sapiens (human) SF295 cells after 48 hr by sulforhodamine B assay; details: SF-295, 48 h; for CC50: read-out: LC50 (the source's name)
# SF-268 = assay: Cytotoxicity against Homo sapiens (human) SF268 cells after 48 hr by sulforhodamine B assay; details: SF-268, 48 h; for CC50: read-out: LC50 (the source's name)
# HCC 2998 = assay: Cytotoxicity against Homo sapiens (human) HCC2998 cells after 48 hr by sulforhodamine B assay; details: HCC 2998, 48 h; for CC50: read-out: LC50 (the source's name)
# NCI-H460 = assay: Cytotoxicity against Homo sapiens (human) NCI-H460 cells after 48 hr by sulforhodamine B assay; details: NCI-H460, 48 h; for CC50: read-out: LC50 (the source's name)
# NCI-H322M = assay: Cytotoxicity against Homo sapiens (human) NCI-H322M cells after 48 hr by sulforhodamine B assay; details: for CC50: read-out: LC50 (the source's name)
# NCI-H23 = assay: Cytotoxicity against Homo sapiens (human) NCI-H23 cells after 48 hr by sulforhodamine B assay; details: NCI-H23, 48 h; for CC50: read-out: LC50 (the source's name)
# HOP-62 = assay: Cytotoxicity against Homo sapiens (human) HOP62 cells after 48 hr by sulforhodamine B assay; details: HOP-62, 48 h; for CC50: read-out: LC50 (the source's name)
# HOP-92 = assay: Cytotoxicity against Homo sapiens (human) HOP92 cells after 48 hr by sulforhodamine B assay; details: HOP-92, 48 h; for CC50: read-out: LC50 (the source's name)
# EKVX = assay: Cytotoxicity against Homo sapiens (human) EKVX cells after 48 hr by sulforhodamine B assay; details: for CC50: read-out: LC50 (the source's name)
# A549 = assay: Cytotoxicity against Homo sapiens (human) A549 cells after 48 hr by sulforhodamine B assay; details: A549, 48 h; for CC50: read-out: LC50 (the source's name)
# MOLT-4 = assay: Cytotoxicity against Homo sapiens (human) MOLT4 cells after 48 hr by sulforhodamine B assay; details: MOLT-4, 48 h; for CC50: read-out: LC50 (the source's name)
# MCF7 = assay: Cytotoxicity against Homo sapiens (human) MCF7 cells assessed as cell growth at 10^-4 M after 48 hr by Alamar blue assay; details: MCF7, 48 h, read-out: Activity
smiles,measurement,setting,value
Nc1nc(Cl)c2ncn(Cc3ccc(CCl)cc3)c2n1,TGI,ACHN,25.1 µM
same,CC50,ACHN,64.6 µM
same,LC50,786-0,> 100 µM
same,TGI,786-0,93.3 µM
same,LC50,SK-OV-3,64.5 µM
same,TGI,SK-OV-3,30.9 µM
same,TGI,OVCAR-5,14.8 µM
same,CC50,OVCAR-5,> 100 µM
same,LC50,IGROV-1,53.7 µM
same,TGI,IGROV-1,22.9 µM
same,LC50 (concentration causing 50% net cell kill),UACC-62,53.7 µM
same,TGI,UACC-62,8.13 µM
same,LC50 (concentration killing 50% of cells),UACC-257,> 100 µM
same,TGI,UACC-257,47.9 µM
same,LC50,SK-MEL-5,63.1 µM
same,TGI,SK-MEL-5,31 µM
same,LC50 (concentration killing 50% of cells),SK-MEL-2,74.1 µM
same,TGI,SK-MEL-2,28.8 µM
same,LC50,LOX IMVI,> 100 µM
same,TGI,LOX IMVI,43.6 µM
same,LC50,M14,> 100 µM
same,TGI,M14,38 µM
same,LC50,SNB-19,46.8 µM
same,TGI,SNB-19,19.9 µM
same,LC50,T47D,> 100 µM
same,TGI,T47D,39.8 µM
same,LC50,Hs-578T,> 100 µM
same,TGI,Hs-578T,> 100 µM
same,LC50 (concentration killing 50% of cells),[1],> 100 µM
same,TGI,[1],26.9 µM
same,LC50,MDA-MB-231,91.2 µM
same,TGI,MDA-MB-231,34.7 µM
same,LC50,DU-145,43.6 µM
same,TGI,DU-145,19.5 µM
same,TGI,TK-10,40.7 µM
same,CC50,TK-10,97.7 µM
same,TGI,RXF 393,7.24 µM
same,CC50,RXF 393,35.5 µM
same,TGI,CAKI-1,9.77 µM
same,CC50,CAKI-1,34.7 µM
same,TGI,SF-295,27.5 µM
same,CC50,SF-295,72.4 µM
same,TGI,SF-268,8.32 µM
same,CC50,SF-268,38.9 µM
same,TGI,HCC 2998,8.91 µM
same,CC50,HCC 2998,75.9 µM
same,TGI,NCI-H460,9.95 µM
same,CC50,NCI-H460,63.1 µM
same,TGI,NCI-H322M,42.7 µM
same,CC50,NCI-H322M,87.1 µM
same,TGI,NCI-H23,30.2 µM
same,CC50,NCI-H23,77.6 µM
same,TGI,HOP-62,27.5 µM
same,CC50,HOP-62,91.2 µM
same,TGI,HOP-92,> 100 µM
same,CC50,HOP-92,> 100 µM
same,TGI,EKVX,7.24 µM
same,CC50,EKVX,28.2 µM
same,TGI,A549,75.9 µM
same,CC50,A549,> 100 µM
same,TGI,MOLT-4,> 100 µM
same,CC50,MOLT-4,> 100 µM
same,growth at 100 µM,MCF7,0%
ClCc1ccccc1Cn1cnc2c(Cl)ncnc21,GI50,ACHN,2.7 µM
same,TGI,ACHN,6.16 µM
same,CC50,ACHN,26.9 µM
same,GI50,786-0,17.8 µM
same,LC50,786-0,83.2 µM
same,TGI,786-0,38 µM
same,GI50,SK-OV-3,4.17 µM
same,LC50,SK-OV-3,85.1 µM
same,TGI,SK-OV-3,15.8 µM
same,GI50,OVCAR-5,2.45 µM
same,TGI,OVCAR-5,6.6 µM
same,CC50,OVCAR-5,25.7 µM
same,GI50,IGROV-1,3.16 µM
same,LC50,IGROV-1,55 µM
same,TGI,IGROV-1,8.91 µM
same,GI50,UACC-62,3.31 µM
same,LC50 (concentration causing 50% net cell kill),UACC-62,28.2 µM
same,TGI,UACC-62,6.6 µM
same,GI50,UACC-257,10.7 µM
same,LC50 (concentration killing 50% of cells),UACC-257,66.1 µM
same,TGI,UACC-257,26.3 µM
same,GI50,SK-MEL-5,1.41 µM
same,LC50,SK-MEL-5,5.88 µM
same,TGI,SK-MEL-5,2.88 µM
same,GI50,SK-MEL-2,2.75 µM
same,LC50 (concentration killing 50% of cells),SK-MEL-2,> 100 µM
same,TGI,SK-MEL-2,18.2 µM
same,GI50,LOX IMVI,2.13 µM
same,LC50,LOX IMVI,> 100 µM
same,TGI,LOX IMVI,5.24 µM
same,GI50,M14,1.95 µM
same,LC50,M14,7.24 µM
same,TGI,M14,3.71 µM
same,GI50,SNB-19,5.37 µM
same,LC50,SNB-19,> 100 µM
same,TGI,SNB-19,> 100 µM
same,GI50,T47D,17.8 µM
same,LC50,T47D,> 100 µM
same,TGI,T47D,61.7 µM
same,GI50,Hs-578T,2.29 µM
same,LC50,Hs-578T,56.2 µM
same,TGI,Hs-578T,6.6 µM
same,GI50,[1],2.18 µM
same,LC50 (concentration killing 50% of cells),[1],10.5 µM
same,TGI,[1],4.67 µM
same,GI50,MDA-MB-231,3.02 µM
same,LC50,MDA-MB-231,45.7 µM
same,TGI,MDA-MB-231,7.41 µM
same,GI50,DU-145,5.62 µM
same,LC50,DU-145,> 100 µM
same,TGI,DU-145,34.7 µM
same,GI50,TK-10,22.9 µM
same,TGI,TK-10,46.8 µM
same,CC50,TK-10,95.5 µM
same,GI50,RXF 393,0.44 µM
same,TGI,RXF 393,2.34 µM
same,CC50,RXF 393,7.41 µM
same,GI50,CAKI-1,1.82 µM
same,TGI,CAKI-1,4.17 µM
same,CC50,CAKI-1,9.33 µM
same,GI50,SF-295,10.5 µM
same,TGI,SF-295,23.4 µM
same,CC50,SF-295,51.3 µM
same,GI50,SF-268,3.23 µM
same,TGI,SF-268,10.9 µM
same,CC50,SF-268,> 100 µM
same,GI50,HCC 2998,1.66 µM
same,TGI,HCC 2998,3.54 µM
same,CC50,HCC 2998,7.41 µM
same,GI50,NCI-H460,15.5 µM
same,TGI,NCI-H460,44.7 µM
same,CC50,NCI-H460,> 100 µM
same,GI50,NCI-H322M,3.98 µM
same,TGI,NCI-H322M,13.8 µM
same,CC50,NCI-H322M,43.6 µM
same,GI50,NCI-H23,2.04 µM
same,TGI,NCI-H23,4.36 µM
same,CC50,NCI-H23,9.33 µM
same,GI50,HOP-62,2.51 µM
same,TGI,HOP-62,6.02 µM
same,CC50,HOP-62,19.9 µM
same,GI50,HOP-92,1.48 µM
same,TGI,HOP-92,4.26 µM
same,CC50,HOP-92,21.4 µM
same,GI50,EKVX,3.09 µM
same,TGI,EKVX,11 µM
same,CC50,EKVX,37.1 µM
same,GI50,A549,7.76 µM
same,TGI,A549,25.7 µM
same,CC50,A549,75.9 µM
same,GI50,MOLT-4,1.58 µM
same,TGI,MOLT-4,5.24 µM
same,CC50,MOLT-4,> 100 µM
same,growth at 100 µM,MCF7,43%
